# Tested on: SNL rats
# Assay: Thermal withdrawal (Hargreaves) in spinal nerve ligation model
# Format: in vivo, rat
# Experimental: (A) L5/L6 spinal nerve ligation (SNL) was performed as described by Kim and Chung (Pain, 50,355-363(1992)). Animals (mice or rats) were anesthetized with halothane. An incision was made lateral to the lumbar spine. The right L5 and L6 spinal nerves were isolated and tightly ligated distal to the dorsal root ganglion. The incision was closed, and animals were allowed to recover for 10 days. Sham-operated animals were prepared in an identical fashion except that the spinal nerves were not ligated.
# (B) The method of Hargreaves et al. (Pain, 32, 77-88 (1988)) was used to measure the thermal withdrawal latency in SNL rats. Animals were acclimated within Plexiglas enclosures on a clear glass plate maintained at 30° C. A radiant heat source (high-intensity projector lamp) was focused onto the plantar surface of the paw. When the paw was withdrawn, a motion detector halted the stimulus and a timer. A maximal cut-off of 40 sec for rats and 30 sec for mice was used to prevent tissue damage. Differences in responses between groups were tested by using the standard ANOVA statistical test followed by post hoc testing with Student's t test with Bonferroni's correction. Significance was defined as P<0.05.
# Thermal withdrawal response was measured 15, 30, 45, 60, 90 and 120 minutes after i.p. administration of ganaxolone (at 1 mg/kg, 3 mg/kg, 6 mg/kg or 10 mg/kg). Table 3 provides the resulting measurement of thermal withdrawal in groups of five rats per dosage level.
smiles,measurement,setting,value
"CC(=O)[C@H]1CC[C@H]2[C@@H]3CC[C@H]4C[C@](C)(O)CC[C@]4(C)[C@H]3CC[C@]12C [ganaxolone, 3α-hydroxy-3β-methyl-5α-pregnan-20-one]",% Activity ± s.e.m. (thermal withdrawal),"1 mg/kg i.p., 15 min",24.59 ± 14.93%
same,% Activity ± s.e.m. (thermal withdrawal),"1 mg/kg i.p., 30 min",27.99 ± 17.71%
same,% Activity ± s.e.m. (thermal withdrawal),"1 mg/kg i.p., 45 min",3.98 ± 2.63%
same,% Activity ± s.e.m. (thermal withdrawal),"1 mg/kg i.p., 60 min",12.62 ± 8.69%
same,% Activity ± s.e.m. (thermal withdrawal),"1 mg/kg i.p., 90 min",17.40 ± 8.65%
same,% Activity ± s.e.m. (thermal withdrawal),"1 mg/kg i.p., 120 min",12.13 ± 9.25%
same,% Activity ± s.e.m. (thermal withdrawal),"3 mg/kg i.p., 15 min",37.15 ± 18.52%
same,% Activity ± s.e.m. (thermal withdrawal),"3 mg/kg i.p., 30 min",48.03 ± 22.45%
same,% Activity ± s.e.m. (thermal withdrawal),"3 mg/kg i.p., 45 min",19.84 ± 12.97%
same,% Activity ± s.e.m. (thermal withdrawal),"3 mg/kg i.p., 60 min",14.25 ± 10.87%
same,% Activity ± s.e.m. (thermal withdrawal),"3 mg/kg i.p., 90 min",4.18 ± 4.18%
same,% Activity ± s.e.m. (thermal withdrawal),"3 mg/kg i.p., 120 min",16.57 ± 11.76%
same,% Activity ± s.e.m. (thermal withdrawal),"6 mg/kg i.p., 15 min",79.03 ± 10.50%
same,% Activity ± s.e.m. (thermal withdrawal),"6 mg/kg i.p., 30 min",70.78 ± 11.53%
same,% Activity ± s.e.m. (thermal withdrawal),"6 mg/kg i.p., 45 min",43.72 ± 10.03%
same,% Activity ± s.e.m. (thermal withdrawal),"6 mg/kg i.p., 60 min",60.94 ± 10.27%
same,% Activity ± s.e.m. (thermal withdrawal),"6 mg/kg i.p., 90 min",42.83 ± 10.41%
same,% Activity ± s.e.m. (thermal withdrawal),"6 mg/kg i.p., 120 min",10.88 ± 6.34%
same,% Activity ± s.e.m. (thermal withdrawal),"10 mg/kg i.p., 15 min",70.07 ± 18.30%
same,% Activity ± s.e.m. (thermal withdrawal),"10 mg/kg i.p., 30 min",46.91 ± 14.25%
same,% Activity ± s.e.m. (thermal withdrawal),"10 mg/kg i.p., 45 min",47.36 ± 12.97%
same,% Activity ± s.e.m. (thermal withdrawal),"10 mg/kg i.p., 60 min",41.45 ± 10.90%
same,% Activity ± s.e.m. (thermal withdrawal),"10 mg/kg i.p., 90 min",33.58 ± 7.53%
same,% Activity ± s.e.m. (thermal withdrawal),"10 mg/kg i.p., 120 min",23.87 ± 4.35%
same,Sedation,"10 mg/kg i.p., thermal withdrawal test",sedated four of the five rats for about one hour

# Source: patent US20060009432A1, “Use of neurosteroids to treat neuropathic pain” (priority 2004, published 2006)
